Ten molecules from US11999746B2, “Compounds” (GlaxoSmithKline Intellectual Property Development Limited, priority 2014, dated 2024) can be followed below.

Each structure is given as a SMILES string. Where a name gives a salt, the structure may show the parent alone.

The target in the assay is T1, recombinant human Lp-PLA2 (Homo sapiens, UniProt Q13093).
T1 sequence (Q13093 22-441): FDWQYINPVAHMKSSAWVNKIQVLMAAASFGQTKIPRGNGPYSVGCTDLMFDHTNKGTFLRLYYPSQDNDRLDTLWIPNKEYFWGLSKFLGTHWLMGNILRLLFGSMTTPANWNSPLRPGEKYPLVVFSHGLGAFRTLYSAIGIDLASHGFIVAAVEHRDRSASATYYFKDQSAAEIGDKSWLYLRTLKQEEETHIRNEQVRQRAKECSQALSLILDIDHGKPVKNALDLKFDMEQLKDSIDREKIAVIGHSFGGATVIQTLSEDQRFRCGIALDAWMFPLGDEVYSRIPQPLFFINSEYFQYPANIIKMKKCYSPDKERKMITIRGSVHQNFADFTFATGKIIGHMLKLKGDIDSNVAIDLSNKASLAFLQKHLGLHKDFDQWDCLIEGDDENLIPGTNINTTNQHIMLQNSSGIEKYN
Kind of assay: (1b) hrThioPAF assay, recombinant human Lp-PLA2. In kind it is biochemical. Conditions: Examples 266-412 were tested here, one experiment or average of multiple experiments, read-out: rhLp-PLA2 (pIC50) (converted). The text has this: 1-O-Hexadecyl-2-deoxy-2-thio-S-acetyl-sn-glyceryl-3-phosphorylcholine (2-thio-PAF) is a substrate for PAF-hydrolases (PAF-AH) commercially available from Cayman Chemical. Upon cleavage with PAF-AH, the free thiol is released at the sn-2 position and can then react with 7-diethylamino-3-(4′-maleimidylphenyl)-4-methylcoumarin (CPM) a thiol-reactive coumarin. This reaction (Michael addition) results in an increase in fluorescence. Inhibitors of Lp-PLA2 therefore prevent this cleavage and no fluorescent increase is observed.
The Thio-PAF assay was run as an unquenched 20 μL assay. The source plate containing the compounds to be tested was prepared by making 1:3 (by volume) serial dilution of the compounds within DMSO on 384-well microplate. Then, 5 μL of the compounds on compound source plate were transferred into 384 well Greiner 784076 (black) plates using STAR+(Hamilton) liquid dispenser. 10 μL of recombinant human Lp-PLA2 enzyme (20 pM rhLp-PLA2 in assay buffer of 50 mM HEPES, pH 7.4, 150 mM NaCl, 1 mM CHAPS) was added to each well of the plate. 5 μL of substrate comprising 40 μM 2-thio-PAF [from ethanol stock], 40 μM CPM [from a DMSO stock] and 400 μM NEM (N-ethylmaleimide) [made fresh daily in DMSO] in assay buffer (50 mM HEPES, pH 7.4, 150 mM NaCl, 1 mM CHAPS) was added to 384 well Greiner 784076 black plates. Plates were vortexed for 10 sec. The plate was covered to protect it from light and incubated for 20 min at 25° C. The plates were read for fluorescence intensity at ex: 380 nm/em: 485 nm using Envision plate reader (Perkin Elmer). Raw data were transferred to Excel software and pIC50 data, curve and QC analysis was conducted by using XL fit module in Excel.
As for `CS(=O)(=O)N1CCN2c3cc(NCc4cccc(F)c4F)nc(=O)n3CC2C1` (stereo not shown) [Example E311, 7-((2,3-Difluorobenzyl)amino)-2-(methylsulfonyl)-3,4,11,11a-tetrahydro-1H-pyrazino[1′,2′:3,4]imidazo[1,2-c]pyrimidin-9(2H)-one], the IC50 was ≤ 10 µM.

Consider `N#Cc1cc(CNc2cc3n(c(=O)n2)CC2CNC(=O)CN32)ccc1F` (stereo not shown) [Example E354, 5-(((3,9-dioxo-2,3,4,9,11,11a-hexahydro-1H-pyrazino[1′,2′:3,4]imidazo[1,2-c]pyrimidin-7-yl)amino)methyl)-2-fluorobenzonitrile, trifluoroacetic acid salt], for which the IC50 was ≤ 10 µM.

`O=C(O)C(C1CC1)N1CCN2c3cc(OCc4ccc(F)c(F)c4)nc(=O)n3CC2C1` (stereo not shown) [Example E328, 2-Cyclopropyl-2-(7-((3,4-difluorobenzyl)oxy)-9-oxo-3,4,11,11a-tetrahydro-1H-pyrazino[1′,2′:3,4]imidazo[1,2-c]pyrimidin-2(9H)-yl)acetic acid, trifluoroacetic acid Salt]: the IC50 was ≤ 10 µM.

As to `N#Cc1cc(COc2cc3n(c(=O)n2)C[C@H]2C[C@@H](N)CN32)ccc1F` [Example E389, 5-((((7R,8aR)-7-Amino-1-oxo-1,6,7,8,8a,9-hexahydropyrrolo[1′,2′:3,4]imidazo[1,2-c]pyrimidin-3-yl)oxy)methyl)-2-fluorobenzonitrile], the IC50 is ≤ 10 µM.

For the molecule `O=c1nc(OCc2ccc(F)c(Br)c2)cc2n1CC1CNCCN21` (stereo not shown) [Example E276, 7-((3-Bromo-4-fluorobenzyl)oxy)-3,4,11,11a-tetrahydro-1H-pyrazino[1′,2′:3,4] imidazo [1,2-c]pyrimidin-9(2H)-one], the IC50 is ≤ 10 µM.

As for `N#Cc1cc(CNc2cc3n(c(=O)n2)CC2CNCCN32)ccc1F` (stereo not shown) [Example E319, 2-Fluoro-5-(((9-oxo-2,3,4,9,11,11a-hexahydro-1H-pyrazino[1′,2′:3,4]imidazo[1,2-c]pyrimidin-7-yl)amino)methyl)benzonitrile hydrochloride], the IC50 was ≤ 10 µM.

In the case of `O=c1nc(NCc2ccc(F)c(F)c2)cc2n1CC1C[S+]([O-])CCN21` (stereo not shown) [Example E375, 7-((3,4-Difluorobenzyl)amino)-3,4,11,11a-tetrahydropyrimido[6′,1′:2,3]imidazo[5,1-c][1,4]thiazin-9(1H)-one 2-oxide], the IC50 was ≤ 10 µM.

With `O=c1nc(OCc2ccc(F)c(Cl)c2)cc2n1CC1CNCCN21` (stereo not shown) [Example E277, 7-((3-Chloro-4-fluorobenzyl)oxy)-3,4,11,11a-tetrahydro-1H-pyrazino[1′,2′:3,4] imidazo [1,2-c]pyrimidin-9(2H)-one], the IC50 is ≤ 10 µM.

With `CS(=O)(=O)N1CCN2c3cc(NCc4ccc(F)c(C#N)c4)nc(=O)n3CC2C1` (stereo not shown) [Example E312, 2-Fluoro-5-(((2-(methylsulfonyl)-9-oxo-2,3,4,9,11,11a-hexahydro-1H-pyrazino[1′,2′:3,4]imidazo[1,2-c]pyrimidin-7-yl)amino)methyl)benzonitrile], the IC50 was ≤ 10 µM.

`O=C1CN2c3cc(NCc4ccc(F)c(F)c4)nc(=O)n3CC2CN1` (stereo not shown) [Example E353, 7-((3,4-Difluorobenzyl)amino)-11,11a-dihydro-1H-pyrazino[1′,2′:3,4]imidazo[1,2-c]pyrimidine-3,9(2H,4H)-dione]: the IC50 was ≤ 10 µM.
